Experimental data from EP0676201B1, “Use of a riminophenazine for treating MDR resistance” (priority 1994, dated 1995).
≈ marks a conversion by molar mass, not a printed value. Where two headings read alike, the source gives them in different places.

Columns and labels:
K562/MMB = test: MTT assay, 7-day exposure to riminophenazines alone or with fixed doxorubicin or vinblastine (Example 4); type: cell-based; conditions: Homo sapiens, K562, 168 h
Source text: A third cell line (562/MMB) used was a MDR leukemia cell line selected in vitro by progressive exposure to increasing concentrations of vinblastine in order to increase P-glycoprotein expression. […] This cell line expresses high levels of P-glycoprotein as determined by flowcytometry using the monoclonal antibody (MRK 16) against this molecule.
The effects were examined of a 7-day exposure of selected compounds on the sensitivity of the cell line (K562/MMB) to the standard chemotherapeutic agents doxorubicin and vinblastine, using the MTT assay.
The cells were seeded at 1 x 10^4 cells per well in 96 well microlitre plates in a volume of 200 µl of RPMI 1640 medium containing 10 % fetal calf serum and incubated with doxorubicin (12.5 ng/ml) or vinblastine (3 ng/ml). The amounts of MDR modulators used were 0.03, 0.06, 0.125, 0.5, 1.0 and 2.0 µg/ml.
After incubation at 37 °C for 7 days, 20 µl MTT (i.e. 3-[4,5-dimethylthiazol-2-yl]2,5-diphenyl-tetrazolium bromide) at 5 mg/ml was added to each well and the plates incubated for a further 4 hours. The cells were washed with phosphate buffered saline and the intracellular formazan crystals solubilized with dimethylsulphoxide, and the absorbency measured spectrophotometrically at a test wavelength of 540 nm and a reference wavelength of 620 nm.

H69/LX4 [1] = test: [14C]-vinblastine accumulation in MDR cell line (Example 2); type: cell-based, human; conditions: 1 hour pretreatment; 250 µg/mℓ [14C]-vinblastine for 30 minutes
Experimental: The effect of riminophenazines on the accumulation of [^14C]-vinblastine was investigated. For these experiments, both of the above cell lines (H69/LX4 and H69/P) were prepared as described by Coley et al (Biochem. Pharmacal 38, 4467-4475 (1989)). After a 1 hour pretreatment with the MDR reversal agents, cells (1 x 10^6/mℓ) were exposed to 250 µg/mℓ [^14C]-vinblastine (1 µCi specific activity) for 30 minutes. […] The results are illustrated in Figure 3 of the accompanying drawings.

H69/LX4 [2] = test: MTT assay, 7-day exposure to riminophenazines alone or with fixed doxorubicin or vinblastine (Example 3); conditions: Homo sapiens, 168 h, read-out: cytotoxic activity: concentrations at which cytotoxic
Experimental: The effects were examined of a 7-day exposure of selected compounds on the sensitivity of the cell line (H69/P) and the resistance cell line (H69/LX4) to the standard chemotherapeutic agents doxorubicin and vinblastine, using the MTT assay.
After incubation at 37°C for 7 days, 20 µℓ MTT (ie 3-[4,5-dimethylthiazol-2-yl]-2,5-diphenyl-tetrazolium bromide) at 5 mg/ml was added to each well and the plates incubated for a further 4 hours. The cells were washed with phosphate buffered saline and the intracellular formazan crystals solubilized with dimethylsulphoxide, and the absorbence measured spectrophotometrically at a test wavelength of 540 nm and a reference wavelength of 620 nm. The mean percentage inhibition ± SEM of four experiments using the relevant controls was taken.

H69/LX4 [3] = test: MTT assay, 7-day exposure: sensitivity of resistant (MDR) cells to chemotherapeutic agents with or without MDR inhibitor (Example 1); type: cell-based; conditions: Homo sapiens, 168 h
Source text: (§1) A further test using no MDR inhibitor was used as a standard.
The cell lines used were human small cell lung cancer cell line HP69/P and a multi-drug resistant (MDR) sub-line H69/LX4, both of which were supplied by the MRC Clinical Oncology and Radiotherapeutics Unit, Hills Road, Cambridge, England. The maintenance of the cell lines and drug response assays was done as described by Twentyman et al in British Journal of Cancer Volume 65 pages 335-340. The H69/LX4 line was originally described by Twentyman et al in British Journal of Cancer Volume 53, pages 529-637 (1986).
The data in parenthesis represents fold sensitivity compared with the chemotherapeutic agent without the MDR inhibitor.

H69/P = test: MTT assay, 7-day exposure: sensitivity of parent cells to chemotherapeutic agents with or without MDR inhibitor (Example 1); type: cell-based, human; conditions: for fold sensitivity compared with the chemotherapeutic agent without the MDR inhibitor, B669 / fold sensitivity compared with the chemotherapeutic agent without the MDR inhibitor, Clofazimine (B663) / fold sensitivity compared with the chemotherapeutic agent without the MDR inhibitor, CsA: value in parenthesis; for fold sensitivity compared with the chemotherapeutic agent without the MDR inhibitor, CsA: with CsA 5 µg/ml; for IC50: Homo sapiens, 168 h
Source text: as §1

[4] = in the presence of doxorubicin (12 ng/ml), read-out: IC 50 of riminophenazine, Doxorubicin
[5] = in the presence of vinblastine (3 ng/ml), read-out: IC 50 of riminophenazine, Vinblastine
[6] = riminophenazine alone, mean of 2 experiments, read-out: IC 50 of riminophenazine, None
[7] = read-out: IC50 of chemotherapeutic agent, MDR INHIBITOR B669
[8] = read-out: IC50 of chemotherapeutic agent, MDR INHIBITOR Clofazimine (B663)
[9] = read-out: IC50 of chemotherapeutic agent, MDR INHIBITOR CsA
[10] = read-out: IC50 of chemotherapeutic agent, MDR INHIBITOR None
[11] = H69/P, with Clofazimine 1 µg/ml
[12] = H69/LX4, no MDR inhibitor, 7 day exposure, mean of 2 - 4 experiments, read-out: IC50 of chemotherapeutic agent, MDR INHIBITOR None
[13] = H69/LX4, with B669 0.5 µg/ml, 7 day exposure, read-out: IC50 of chemotherapeutic agent, MDR INHIBITOR B669
[14] = H69/LX4, with Clofazimine 1 µg/ml, 7 day exposure, read-out: IC50 of chemotherapeutic agent, MDR INHIBITOR Clofazimine (B663)
[15] = H69/P, no MDR inhibitor, 7 day exposure, mean of 2 - 4 experiments, read-out: IC50 of chemotherapeutic agent, MDR INHIBITOR None
[16] = H69/P, with B669 0.5 µg/ml, 7 day exposure, read-out: IC50 of chemotherapeutic agent, MDR INHIBITOR B669
[17] = H69/P, with Clofazimine 1 µg/ml, 7 day exposure, read-out: IC50 of chemotherapeutic agent, MDR INHIBITOR Clofazimine (B663)

Structure (SMILES)	IC50 (K562/MMB; [4]) [ng/mL]	IC50 (K562/MMB; [5]) [ng/mL]	IC50 (K562/MMB; [6]) [ng/mL]	IC50 (H69/LX4 [3]; [9]) [ng/mL]	fold sensitivity compared with the chemotherapeutic agent without the MDR inhibitor, B669 (H69/P; H69/P, with B669 0.5 µg/ml) [fold]	fold sensitivity compared with the chemotherapeutic agent without the MDR inhibitor, Clofazimine (B663) (H69/P; [11]) [fold]	fold sensitivity compared with the chemotherapeutic agent without the MDR inhibitor, CsA (H69/P; H69/P) [fold]	IC50 (H69/P; [9]) [ng/mL]	IC50 (H69/LX4 [3]; [12]) [ng/mL]	IC50 (H69/LX4 [3]; [13]) [ng/mL]	IC50 (H69/LX4 [3]; [14]) [ng/mL]	IC50 (H69/P; [15]) [ng/mL]	IC50 (H69/P; [16]) [ng/mL]	IC50 (H69/P; [17]) [ng/mL]	other results
CC(C)N=c1cc2n(-c3ccc(Cl)cc3)c3ccccc3nc-2cc1Nc1ccc(Cl)cc1 [Compound B663, N,5-bis-(4-chlorophenyl)-3,5-dihydro-3-[(1-methylethyl)imino]-2-phenazinamine]	135	< 50	225 (≈ 0.475 µM)												vinblastine accumulation in the MDR cell line (H69/LX4) (H69/LX4 [1]): significant enhancement
c1ccc(Nc2cc3nc4ccccc4n(-c4ccccc4)c-3cc2=NC2CCCCC2)cc1 [Compound B669]	69		139 (≈ 0.313 µM)												vinblastine accumulation in the MDR cell line (H69/LX4) (H69/LX4 [1]): significant enhancement
CC1(C)CC(N=c2cc3n(-c4ccc(Cl)c(C(F)(F)F)c4)c4ccccc4nc-3cc2Nc2ccc(Cl)c(C(F)(F)F)c2)CC(C)(C)N1 [Compound B4163, N,5-bis[(3-trifluoromethyl)-4-chlorophenyl]-3,5-dihydro-3-[(2',2',6',6'-tetramethylpiperidyl)-imino]-2-phenazinamie]	227	< 50	340 (≈ 0.481 µM)												
CC1(C)CC(N=c2cc3n(-c4cc(Cl)c(Cl)c(Cl)c4)c4ccccc4nc-3cc2Nc2cc(Cl)c(Cl)c(Cl)c2)CC(C)(C)N1 [Compound B4169, N,5-bis(3,4,5-trichlorophenyl)-3,5-dihydro-3[(2',2',6',6'-tetramethyl-4-piperidyl)-imino]-2-phenazinamine]	969	116	2860 (≈ 4.04 µM)												MCC (H69/LX4 [2]): > 12.5 µg/mL
COc1ccc(Nc2cc3nc4ccccc4n(-c4ccc(OC)cc4)c-3cc2=NC2CC(C)(C)NC(C)(C)C2)cc1 [Compound B4174, N,5-bis(4-methoxyphenyl)-3,5-dihydro-3-[(2',2',6',6'-tetramethyl-4-piperidyl)-imino]-2-phenazinamine]	210	178	316 (≈ 0.563 µM)												
O=P1(N(CCCl)CCCl)NCCCO1 (centres unmarked) [Cyclophosphamide]				1700 (≈ 6.51 µM)	1.0	0.9	1.1	1600 (≈ 6.13 µM)							IC50 (H69/LX4 [3]; [7]): 1400 ng/mL (≈ 5.36 µM); IC50 (H69/LX4 [3]; [8]): 1600 ng/mL (≈ 6.13 µM); IC50 (H69/LX4 [3]; [10]): 1600 ng/mL (≈ 6.13 µM); IC50 (H69/P; [7]): 1800 ng/mL (≈ 6.89 µM); IC50 (H69/P; [8]): 1900 ng/mL (≈ 7.28 µM); IC50 (H69/P; [10]): 1800 ng/mL (≈ 6.89 µM)
COc1cccc2c1C(=O)c1c(O)c3c(c(O)c1C2=O)C[C@@](O)(C(C)=O)C[C@@H]3O[C@H]1C[C@H](N)[C@H](O)[C@H](C)O1 [Daunorubicin]				4 (≈ 0.00758 µM)	1.2	1.0	1.0	2 (≈ 0.00379 µM)	36 (≈ 0.0682 µM)	15 (≈ 0.0284 µM)	9 (≈ 0.0171 µM)	2 (≈ 0.00379 µM)	1.6 (≈ 0.00303 µM)	2 (≈ 0.00379 µM)	
COc1cccc2c1C(=O)c1c(O)c3c(c(O)c1C2=O)C[C@@](O)(C(=O)CO)C[C@@H]3O[C@H]1C[C@H](N)[C@H](O)[C@H](C)O1 [Doxorubicin]				10 (≈ 0.0184 µM)	1.0	0.8	1.0	3 (≈ 0.00552 µM)	110 (≈ 0.202 µM)	16 (≈ 0.0294 µM)	10 (≈ 0.0184 µM)	3 (≈ 0.00552 µM)	3 (≈ 0.00552 µM)	4 (≈ 0.00736 µM)	
COc1cc([C@@H]2c3cc4c(cc3[C@@H](O[C@@H]3O[C@@H]5CO[C@@H](C)O[C@H]5[C@H](O)[C@H]3O)[C@H]3COC(=O)[C@H]23)OCO4)cc(OC)c1O [Etoposide]				0.08 (≈ 0.000136 µM)	1.2	0.6	0.8	0.09 (≈ 0.000153 µM)	13 (≈ 0.0221 µM)	0.09 (≈ 0.000153 µM)	2.6 (≈ 0.00442 µM)	0.7 (≈ 0.00119 µM)	0.06 (≈ 0.000102 µM)	0.11 (≈ 0.000187 µM)	
CN(Cc1cnc2nc(N)nc(N)c2n1)c1ccc(C(=O)N[C@@H](CCC(=O)O)C(=O)O)cc1 [Methotrexate]				4600 (≈ 10.1 µM)	1.0	0.9	1.5	2400 (≈ 5.28 µM)	3200 (≈ 7.04 µM)	3500 (≈ 7.7 µM)	4400 (≈ 9.68 µM)	3500 (≈ 7.7 µM)	3400 (≈ 7.48 µM)	3700 (≈ 8.14 µM)	
CO[C@@]12[C@H](COC(N)=O)C3=C(C(=O)C(C)=C(N)C3=O)N1C[C@@H]1N[C@@H]12 [Mitomycin C]				80 (≈ 0.239 µM)				9 (≈ 0.0269 µM)		40 (≈ 0.12 µM)	60 (≈ 0.179 µM)				IC50 (H69/P; [7]): 10 ng/mL (≈ 0.0299 µM); IC50 (H69/P; [8]): 10 ng/mL (≈ 0.0299 µM)
CC[C@]1(O)C[C@@H]2CN(CCc3c([nH]c4ccccc34)[C@@](C(=O)OC)(c3cc4c(cc3OC)N(C)[C@H]3[C@@](O)(C(=O)OC)[C@H](OC(C)=O)[C@]5(CC)C=CCN6CC[C@]43[C@@H]65)C2)C1 [Vinblastine]				8 (≈ 0.00986 µM)	1.1	1.3	1.4	0.7 (≈ 0.000863 µM)	120 (≈ 0.148 µM)	8 (≈ 0.00986 µM)	8 (≈ 0.00986 µM)	1 (≈ 0.00123 µM)	0.9 (≈ 0.00111 µM)	0.8 (≈ 0.000986 µM)	
